# Source: patent US12617773B2, “Azetidin-3-ylmethanol derivatives as CCR6 receptor modulators” (Idorsia Pharmaceuticals Ltd, priority 2020, dated 2026)
# Target: T1, human CCR6 (Homo sapiens, UniProt P51684)
# T1 construct: expressed in transfected cells; host or cells: HEK-293
# T1 sequence (P51684 1-374): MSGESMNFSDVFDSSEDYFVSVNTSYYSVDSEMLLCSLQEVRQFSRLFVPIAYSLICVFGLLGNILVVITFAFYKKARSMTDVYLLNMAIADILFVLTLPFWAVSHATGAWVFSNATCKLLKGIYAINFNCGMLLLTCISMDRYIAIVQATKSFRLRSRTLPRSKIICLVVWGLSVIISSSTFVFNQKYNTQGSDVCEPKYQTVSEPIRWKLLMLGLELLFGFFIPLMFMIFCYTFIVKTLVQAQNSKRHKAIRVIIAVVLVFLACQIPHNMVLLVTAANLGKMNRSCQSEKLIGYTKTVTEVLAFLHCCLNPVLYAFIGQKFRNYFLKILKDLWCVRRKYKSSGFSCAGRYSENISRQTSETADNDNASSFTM
# Assay: FLIPR assay (inhibition of CCL20-induced calcium signal)
# Assay type: cell-based
# Conditions: HEK-293 cells expressing human CCR6; mean values where determined several times; read-out: FLIPR IC50
# How it was run: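 IC50 values come from baseline-corrected peak calcium fluorescence after agonist. The agonist was CCL20 at 10 nM final, added to engineered human CCR6 HEK-293 cells following a 30-min, room-temperature, dark preincubation with serially diluted compound. Readings were taken in a fluorometric imaging plate reader.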
row,IC50 [nM],Structure (SMILES)
1,75.5,CC(=O)N1CCC(C)(C(O)C#Cc2cncc([C@@](O)(c3ccc(C(C)C)cc3)C3(C)CN(C)C3)c2)CC1 (stereo partly shown) [Example 601]
2,32.8,CCC(O)(C#Cc1cncc([C@@](O)(c2ccc(C(C)C)cc2)C2(C)CN(C)C2)c1)c1cccc(OC)n1 (stereo partly shown) [Example 45]
3,10.5,CCC(O)(CCc1cncc(C(O)(c2ccc(C(C)C)cc2)C2(C)CN(C)C2)c1)c1cccc(OC)n1 (stereo not shown) [Example 80]
4,11.1,CC(C)c1ccc([C@](O)(c2cncc(C#CC(C)(O)c3n[nH]c4ccccc34)c2)C2(C)CN(C)C2)cc1 (stereo partly shown) [Example 613]
5,88.9,COCCC(=O)N1CCC(c2nc(-c3cncc([C@@](O)(c4ccc(C(C)C)cc4)C4(C)CN(C)C4)c3)no2)CC1 [Example 373]
6,712,"CC(C)c1ccc(C(O)(c2cccc(N3CCCC3)n2)C2(C)CN(C)C2)cc1 (stereo not shown) [Example 421, (1,3-Dimethyl-azetidin-3-yl)-(4-isopropyl-phenyl)-(6-pyrrolidin-1-yl-pyridin-2-yl)-methanol]"
7,434,CC(C)c1ccc([C@](O)(c2cncc(CCC(C)(O)c3ccn(C)n3)c2)C2(C)CN(C)C2)cc1 (stereo partly shown) [Example 70]
8,41.8,COC1(c2noc(-c3cncc([C@@](O)(c4ccc(C(C)C)cc4)C4(C)CN(C)C4)c3)n2)CCC1 [Example 101]
9,23.4,CC(C)c1ccc([C@](O)(c2cncc(N3CC(F)(F)OC(F)(F)C3)c2)C2(C)CN(C)C2)cc1 [Example 235]
10,336,COc1ccc(C(O)(c2cncc(N3CCCC3)c2)C2(C)CN(C)C2)cc1 (stereo not shown) [Example 151]
11,58.1,CC(C)c1ccc([C@](O)(c2cncc(-c3noc(C4COC4)n3)c2)C2(C)CN(C3CC3)C2)cc1 [Example 453]
12,58.6,"COCCCc1ccc(C(O)(c2cncc(N3CCCC3)c2)C2(C)CN(C)C2)cc1 (stereo not shown) [Example 309, (1,3-Dimethyl-azetidin-3-yl)-[4-(3-methoxy-propyl)-phenyl]-(5-pyrrolidin-1-yl-pyridin-3-yl)-methanol]"
13,376,"CC(C)c1ccc([C@](O)(c2cncc(-c3noc(CCN(C)C(=O)CO)n3)c2)C2(C)CN(C)C2)cc1 [Example 144, N-[2-(3-{5-[(R)-(1,3-Dimethyl-azetidin-3-yl)-hydroxy-(4-isopropyl-phenyl)-methyl]-pyridin-3-yl}-[1,2,4]oxadiazol-5-yl)-ethyl]-2-hydroxy-N-methyl-acetamide]"
14,39.1,CC(C)c1ccc([C@](O)(c2cncc(-c3noc(CC4CCOCC4)n3)c2)C2(C)CN(C)C2)cc1 [Example 110]
15,20.5,CC(C)c1ccc([C@](O)(c2cncc(-c3noc([C@H](O)C4CCCCC4)n3)c2)C2(C)CN(C)C2)cc1 [Example 119]
16,63.3,CCC(O)(C#Cc1cncc([C@@](O)(c2ccc(C(C)C)cc2)C2(C)CN(C)C2)c1)c1ccccn1 (stereo partly shown) [Example 44]
17,125,"CC(=O)N1CCc2nc(-c3cncc([C@@](O)(c4ccc(C(C)C)cc4)C4(C)CN(C)C4)c3)ccc2C1 [Example 684, 1-(2-{5-[(R)-(1,3-Dimethyl-azetidin-3-yl)-hydroxy-(4-isopropyl-phenyl)-methyl]-pyridin-3-yl}-7,8-dihydro-5H-[1,6]naphthyridin-6-yl)-ethanone]"
18,23.2,Cc1cc(C2(C#Cc3cncc([C@@](O)(c4ccc(C(C)C)cc4)C4(C)CN(C)C4)c3)CC2)ncn1 [Example 635]
19,37.6,CC(C)c1ccc([C@](O)(c2cncc(C#CC3(O)CCN(C(=O)OC(C)(C)C)C3)c2)C2(C)CN(C)C2)cc1 (stereo partly shown) [Example 406]
20,87.5,COCC(=O)NC(C)(C)Cc1nc(-c2cncc([C@@](O)(c3ccc(C(C)C)cc3)C3(C)CN(C)C3)c2)no1 [Example 465]
21,52.8,CN1CC(C)([C@](O)(c2ccc(C3CC3)cc2)c2cncc(-c3nc(COC4CCC4)no3)c2)C1 [Example 84]
22,16.5,CN1CC(C)([C@](O)(c2ccc(C3(C)CC3)cc2)c2cncc(N3CCCC3)c2)C1 [Example 184]
23,54.7,CCC1(c2nc(-c3cncc([C@@](O)(c4ccc(C(C)C)cc4)C4(C)CN(C)C4)c3)no2)CCN(C(C)=O)CC1 [Example 475]
24,43,CC(C)c1ccc([C@](O)(c2cncc(-c3noc(C4CCC(O)CC4)n3)c2)C2(C)CN(C)C2)cc1 (stereo partly shown) [Example 111]
25,35.3,CC(C)c1ccc([C@](O)(c2cnnc(N3CC(c4ccccc4)CC3=O)c2)C2(C)CN(C)C2)cc1 (stereo partly shown) [Example 443]

row,IC50 [nM],Structure (SMILES)
1,509,CC(C)c1ccc([C@](O)(c2cncc(CCC(C)(C)N3CCOC3=O)c2)C2(C)CN(C)C2)cc1 [Example 638]
2,113,CC(=O)N1CC[C@@H](c2nc(-c3cncc([C@@](O)(c4ccc(C(C)C)cc4)C4(C)CN(C)C4)c3)no2)C1 [Example 349]
3,17.7,"CC(C)c1ccc([C@](O)(c2cncc(COC3CCCC3)c2)C2(C)CN(C)C2)cc1 [Example 426, (R)-(5-Cyclopentyloxymethyl-pyridin-3-yl)-(1,3-dimethyl-azetidin-3-yl)-(4-isopropyl-phenyl)-methanol]"
4,207,[2H]C([2H])([2H])C(=O)NCc1nc(-c2cncc([C@@](O)(c3ccc(C(C)C)cc3)C3(C)CN(C)C3)c2)no1 [Example 336]
5,44.9,"COc1nccc(C(C)(O)C#Cc2cncc([C@@](O)(c3ccc(C(C)C)cc3)C3(C)CN(C)C3)c2)n1 (single isomer, unassigned) [Example 623]"
6,168,"CC(C)c1ccc([C@](O)(c2cncc(C3CCC(C)(O)CC3)c2)C2(C)CN(C)C2)cc1 (stereo partly drawn) [Example 327, 4-{5-[(R)-(1,3-Dimethyl-azetidin-3-yl)-hydroxy-(4-isopropyl-phenyl)-methyl]-pyridin-3-yl}-1-methyl-cyclohexanol]"
7,171,"COCC(=O)N1CCC(c2noc(-c3cncc([C@@](O)(c4ccc(C(C)C)cc4)C4(C)CN(C)C4)c3)n2)CC1 [Example 526, 1-[4-(5-{5-[(R)-(1,3-Dimethyl-azetidin-3-yl)-hydroxy-(4-isopropyl-phenyl)-methyl]-pyridin-3-yl}-[1,2,4]oxadiazol-3-yl)-piperidin-1-yl]-2-methoxy-ethanone]"
8,71.5,COCCOC(=O)N1CCC(c2nc(-c3cncc([C@@](O)(c4ccc(C(C)C)cc4)C4(C)CN(C)C4)c3)no2)CC1 [Example 380]
9,15,COc1cccc(C(C)(O)CCc2cncc([C@@](O)(c3ccc(C(C)C)cc3)C3(C)CN(C)C3)c2)n1 (stereo partly shown) [Example 72]
10,76.5,Cc1cc(C(C)(O)C#Cc2cncc([C@@](O)(c3ccc(C(C)C)cc3)C3(C)CN(C)C3)c2)nn1C (stereo partly shown) [Example 39]
11,138,"CCC(O)(CCc1cncc([C@@](O)(c2ccc(C(C)C)cc2)C2(C)CN(C)C2)c1)c1cc(C)ncn1 (stereo partly drawn) [Example 408, 1-{5-[(R)-(1,3-Dimethyl-azetidin-3-yl)-hydroxy-(4-isopropyl-phenyl)-methyl]-pyridin-3-yl}-3-(6-methyl-pyrimidin-4-yl)-pentan-3-ol]"
12,46.2,Cc1cccc(C(C)(O)C#Cc2cncc([C@@](O)(c3ccc(C4(C(F)(F)F)CC4)cc3)C3(C)CN(C)C3)c2)n1 (stereo partly shown) [Example 654]
13,67,CC(C)c1ccc([C@](O)(c2cncc(CCC(C)(C)N3CCNC3=O)c2)C2(C)CN(C)C2)cc1 [Example 641]
14,29.1,CC(C)c1ccc([C@](O)(c2cnnc(Oc3ccc4[nH]c(=O)oc4c3)c2)C2(C)CN(C)C2)cc1 [Example 397]
15,85.5,Cc1nn(C)cc1C(O)C#Cc1cncc([C@@](O)(c2ccc(C(C)C)cc2)C2(C)CN(C)C2)c1 (stereo partly shown) [Example 29]
16,66.6,CC(C)c1ccc([C@](O)(c2cncc(-c3nc(C4CCN(C(=O)OCc5ccccc5)CC4)no3)c2)C2(C)CN(C)C2)cc1 [Example 341]
17,184,"CCN1CC(c2nc(-c3cncc([C@@](O)(c4ccc(C(C)C)cc4)C4(C)CN(C)C4)c3)no2)CC1=O (single isomer, unassigned) [Example 510]"
18,485,"CC(C)c1ccc([C@](O)(c2ccnc(-c3noc(C4CCOCC4)n3)c2)C2(C)CN(C)C2)cc1 [Example 329, (S)-(1,3-Dimethyl-azetidin-3-yl)-(4-isopropyl-phenyl)-{2-[5-(tetrahydro-pyran-4-yl)-[1,2,4]oxadiazol-3-yl]-pyridin-4-yl}-methanol]"
19,102,"CC(C)c1ccc([C@](O)(c2cncc(C#CC(C)(O)c3ccn(C)n3)c2)C2(C)CN(C)C2)cc1 (single isomer, unassigned) [Example 405]"
20,50.1,"CC(C)c1ccc(C(O)(c2cncc(N3CCCC3)n2)C2(C)CN(C)C2)cc1 (stereo not shown) [Example 331, (1,3-Dimethyl-azetidin-3-yl)-(4-isopropyl-phenyl)-(6-pyrrolidin-1-yl-pyrazin-2-yl)-methanol]"
21,238,CC(C)c1ccc([C@](O)(c2cncc(OCC(C)(C)O)c2)C2(C)CN(C)C2)cc1 [Example 252]
22,35.8,"CCCc1ccc(C(O)(c2cncc(N3CCCC3)c2)C2(C)CN(C)C2)cc1 (stereo not shown) [Example 150, (1,3-Dimethyl-azetidin-3-yl)-(4-propyl-phenyl)-(5-pyrrolidin-1-yl-pyridin-3-yl)-methanol]"
23,143,"CC(C)c1ccc(C(O)(c2cnc(N3CCCC3)nc2)C2(C)CN(C)C2)cc1 (stereo not shown) [Example 330, (1,3-Dimethyl-azetidin-3-yl)-(4-isopropyl-phenyl)-(2-pyrrolidin-1-yl-pyrimidin-5-yl)-methanol]"
24,615,CC(C)c1ccc([C@](O)(c2cncc(-c3noc(C(C)(C)O)n3)c2)C2(C)CN(C)C2)cc1Cl [Example 556]
